Measured values: ChEMBL document CHEMBL1201862, “PubChem BioAssay data set” (2004)
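These data come from cells grown in 96-well plates and exposed to compound for 48 hours at five concentrations. GI50: concentration for 50% inhibition of growth.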 Calls of active or inactive are those of the source. Cut-off read from the data, not from the text of the source: active = GI50 up to about 1.1 µM and inactive = higher.

Assays:
Assay in all cases: inhibition of tumour cell growth, NCI panel, 48 h
A498 = test system: A498
ACHN = test system: ACHN
CCRF-CEM = test system: CCRF-CEM
DLD-1 = test system: DLD-1
DMS-114 = test system: DMS-114
EKVX = test system: EKVX
HCC 2998 = test system: HCC 2998
HCT-116 = test system: HCT-116
HL-60 = test system: HL-60
HOP-62 = test system: HOP-62
HT-29 = test system: HT-29
K562 = test system: K562
KM12 = test system: KM12
LOX IMVI = test system: LOX IMVI
LXFL 529 = test system: LXFL 529
M14 = test system: M14
M19-MEL = test system: M19-MEL
MOLT-4 = test system: MOLT-4
Malme-3M = test system: Malme-3M
NCI-H23 = test system: NCI-H23
NCI-H460 = test system: NCI-H460
NCI-H522 = test system: NCI-H522
OVCAR-3 = test system: OVCAR-3
OVCAR-4 = test system: OVCAR-4
OVCAR-5 = test system: OVCAR-5
RXF 393 = test system: RXF 393
SF-268 = test system: SF-268
SF-539 = test system: SF-539
SK-MEL-28 = test system: SK-MEL-28
SK-MEL-2 = test system: SK-MEL-2
SK-OV-3 = test system: SK-OV-3
SN12C = test system: SN12C
SNB-19 = test system: SNB-19
SNB-75 = test system: SNB-75
SR = test system: SR
TK-10 = test system: TK-10
U-251 = test system: U-251
UACC-257 = test system: UACC-257
UACC-62 = test system: UACC-62
UO-31 = test system: UO-31
XF498 = test system: XF498
786-0 = test system: 786-0
A549 = test system: A549
CAKI-1 = test system: CAKI-1
COLO 205 = test system: COLO 205
DMS-273 = test system: DMS-273
HCT-15 = test system: HCT-15
HOP-92 = test system: HOP-92
IGROV-1 = test system: IGROV-1
KM-20L2 = test system: KM-20L2
NCI-H226 = test system: NCI-H226
OVCAR-8 = test system: OVCAR-8
RPMI-8226 = test system: RPMI-8226
SF-295 = test system: SF-295
SK-MEL-5 = test system: SK-MEL-5
SNB-78 = test system: SNB-78
SW-620 = test system: SW-620
HOP-18 = test system: HOP-18

Measured: GI50

COS(=O)c1cc(Cl)cc(Cl)c1O (stereo unspecified)
inactive: A498 > 100 µM | ACHN > 100 µM | CCRF-CEM > 100 µM | DLD-1 > 100 µM | DMS-114 > 100 µM | EKVX > 100 µM | HCC 2998 > 100 µM | HCT-116 > 100 µM | HL-60 > 100 µM | HOP-62 > 100 µM | HT-29 > 100 µM | K562 > 100 µM | KM12 > 100 µM | LOX IMVI > 100 µM | LXFL 529 > 100 µM | M14 > 100 µM | M19-MEL > 100 µM | MOLT-4 > 100 µM | Malme-3M > 100 µM | NCI-H23 > 100 µM | NCI-H460 > 100 µM | NCI-H522 18 µM | OVCAR-3 > 100 µM | OVCAR-4 > 100 µM | OVCAR-5 > 100 µM | RXF 393 > 100 µM | SF-268 > 100 µM | SF-539 > 100 µM | SK-MEL-28 > 100 µM | SK-MEL-2 > 100 µM | SK-OV-3 81.7 µM | SN12C > 100 µM | SNB-19 > 100 µM | SNB-75 87.7 µM | SR > 100 µM | TK-10 > 100 µM | U-251 > 100 µM | UACC-257 > 100 µM | UACC-62 > 100 µM | UO-31 > 100 µM | XF498 > 100 µM

C=CCN1/C(=C2\SC(=S)N(c3ccc(C)cc3)C2=O)Sc2c1nc[nH]c2=O
inactive: 786-0 > 100 µM | A498 > 100 µM | A549 > 100 µM | ACHN > 100 µM | CAKI-1 > 100 µM | CCRF-CEM > 100 µM | COLO 205 > 100 µM | DLD-1 > 100 µM | DMS-114 76.9 µM | DMS-273 > 100 µM | EKVX > 100 µM | HCT-116 > 100 µM | HL-60 > 100 µM | HOP-62 > 100 µM | HOP-92 > 100 µM | HT-29 > 100 µM | IGROV-1 64.9 µM | K562 > 100 µM | KM-20L2 > 100 µM | LOX IMVI 33.9 µM | LXFL 529 > 100 µM | M14 > 100 µM | M19-MEL > 100 µM | MOLT-4 58.9 µM | Malme-3M 78.2 µM | NCI-H226 > 100 µM | NCI-H23 > 100 µM | NCI-H460 > 100 µM | NCI-H522 59.2 µM | OVCAR-3 > 100 µM | OVCAR-4 96.2 µM | OVCAR-5 > 100 µM | OVCAR-8 > 100 µM | RPMI-8226 > 100 µM | RXF 393 26.4 µM | SF-268 > 100 µM | SF-295 88.7 µM | SF-539 48.3 µM | SK-MEL-28 > 100 µM | SK-MEL-2 43.3 µM | SK-MEL-5 66.1 µM | SK-OV-3 > 100 µM | SN12C 77.1 µM | SNB-19 > 100 µM | SNB-78 > 100 µM | SW-620 65.3 µM | TK-10 > 100 µM | U-251 79.8 µM | UACC-257 > 100 µM | UACC-62 > 100 µM | UO-31 > 100 µM | XF498 > 100 µM
47 µM: HCT-15

NCCCCN(CCCN)/[N+]([O-])=N\O
> 100 µM: HCT-15
inactive: 786-0 > 100 µM | A549 > 100 µM | ACHN > 100 µM | CAKI-1 > 100 µM | CCRF-CEM > 100 µM | COLO 205 > 100 µM | DLD-1 > 100 µM | DMS-114 > 100 µM | DMS-273 > 100 µM | HCC 2998 > 100 µM | HCT-116 > 100 µM | HL-60 > 100 µM | HOP-18 > 100 µM | HOP-62 > 100 µM | HOP-92 > 100 µM | HT-29 > 100 µM | IGROV-1 > 100 µM | K562 > 100 µM | KM-20L2 > 100 µM | KM12 > 100 µM | LXFL 529 > 100 µM | M14 > 100 µM | M19-MEL > 100 µM | MOLT-4 > 100 µM | Malme-3M > 100 µM | NCI-H226 > 100 µM | NCI-H23 > 100 µM | NCI-H460 > 100 µM | NCI-H522 > 100 µM | OVCAR-3 > 100 µM | OVCAR-4 > 100 µM | OVCAR-5 > 100 µM | OVCAR-8 > 100 µM | RPMI-8226 > 100 µM | RXF 393 > 100 µM | SF-268 > 100 µM | SF-295 > 100 µM | SF-539 > 100 µM | SK-MEL-28 > 100 µM | SK-MEL-2 > 100 µM | SK-MEL-5 > 100 µM | SK-OV-3 > 100 µM | SN12C > 100 µM | SNB-19 > 100 µM | SNB-75 > 100 µM | SNB-78 > 100 µM | SR > 100 µM | SW-620 > 100 µM | U-251 > 100 µM | UACC-257 > 100 µM | UACC-62 > 100 µM | UO-31 > 100 µM

CC1(C)OC2C(O1)[C@H]1OC(C(Cl)(Cl)Cl)=N[C@H]1C(I)[C@H]2N1C(=O)c2ccccc2C1=O (stereo partly specified)
55.1 µM: HCT-15
inactive: 786-0 > 100 µM | A498 > 100 µM | A549 32.6 µM | ACHN 65.6 µM | CCRF-CEM 41.4 µM | COLO 205 33.6 µM | DLD-1 > 100 µM | DMS-114 30.6 µM | DMS-273 52.1 µM | EKVX 79.3 µM | HCT-116 47.1 µM | HL-60 17.9 µM | HOP-18 > 100 µM | HOP-62 > 100 µM | HOP-92 40.6 µM | HT-29 59.4 µM | IGROV-1 25.5 µM | K562 36.7 µM | KM-20L2 60.4 µM | KM12 49.7 µM | LOX IMVI 51.2 µM | LXFL 529 50.2 µM | M14 69.3 µM | M19-MEL 69.8 µM | MOLT-4 26.1 µM | NCI-H226 > 100 µM | NCI-H23 58.2 µM | NCI-H460 54.6 µM | NCI-H522 24.5 µM | OVCAR-4 24.1 µM | OVCAR-5 > 100 µM | OVCAR-8 > 100 µM | RPMI-8226 32.7 µM | RXF 393 28.9 µM | SF-268 71.6 µM | SF-295 56.4 µM | SF-539 > 100 µM | SK-MEL-28 92.3 µM | SK-MEL-5 48.9 µM | SN12C 74.8 µM | SNB-19 > 100 µM | SNB-75 56.9 µM | SNB-78 73.3 µM | SR 23.1 µM | SW-620 > 100 µM | U-251 84.9 µM | UACC-257 36.1 µM | UACC-62 54.5 µM
